Like-named read-outs stand apart in the source and are kept apart here. Residues, ends and D or L forms follow the SMILES beside them. *: point of attachment. Cbz = O=C(OCc1ccccc1)*
Legend:
[1] = system: mCherry-EGFP-G134TetF; experiment: In cellulo bioconjugation quantified with sTCO-CA and HaloTag; format: cell-based; details: sTCO-CA then HaloTag
Description: (§1) FIGS. 1A-1B. Experimental workflow for the quantification of bioconjugation to UAA-bearing proteins expressed in cells. Following expression of the POI bearing a UAA at any surface position (e.g., A-E), the FIG. 1A) sTCO-chloroalkane ligand or FIG. 1B) sTCO-E3 ligase ligand, is added to the media and undergoes a selective bioconjugation with the UAA. Excess ligand is washed away and cells are FIG. 1A) lysed or FIG. 1B) incubated with sTCO-chloroalkane then lysed. The lysate is incubated with HaloTag protein and the bioconjugation is quantified via western blot.
(§2) Before comparing the degradation of different mCherry-EGFP mutants, validating the extent of bioconjugation to TetF at each position was required. A method for quantifying in cellulo protein bioconjugation that utilizes a strained trans-cyclooctene chloroalkane (sTCO-CA) to react with TetF and subsequently dimerize with the self-labeling enzyme, HaloTag, was previously […]. Using this technique, the extent of bioconjugation mCherry-EGFP-I129TetF (~90%) and mCherry-EGFP-G134TetF (~55%, FIG. 4D) was quantified. Bioconjugation to two new mCherry-EGFP-TetF mutants using the same method was also quantified (FIG. 7). […] By determining the extent of bioconjugation to TetF mutants across the surface of mCherry-EGFP, variations in degradation due to incomplete bioconjugation could be evaluated. […]

[2] = system: mCherry-EGFP-I129TetF; experiment: as above; format: cell-based; details: sTCO-CA then HaloTag
Description: as §1, §2

[3] = cited from earlier work
[4] = system: mCherry-EGFP-Y151TetF; experiment: Degradation mechanism: thalidomide-OH pretreatment, cereblon-mediated degradation; format: cell-based; details: pretreatment with 100 µM of Thal-OH, then sTCO-PEG2-CRBN
[5] = system: MKP3; details: cited from earlier work
[6] = system: DUSP1; details: cited from earlier work
[7] = system: mCherry-EGFP-Y151TetF; experiment: Degradation mechanism: proteasome inhibitor pre-treatment; format: cell-based; details: 10 μM inhibitor, 4 h pre-incubation; then 10 μM sTCO-PEG2-CRBN overnight
Description: FIGS. 16A-16B. Degradation mechanism of sTCO-PEG2-CRBN. FIG. 16A) The degradation of mCherry-EGFP-Y151TetF was reduced when cells were pre-treated with proteasome inhibitor MG132 or epoxomicin, validating that sTCO-PEG2-CRBN induced degradation is mediated by the proteasome.
For mechanistic insight into sTCO-PEG2-CRBN degradation (FIG. 16) cells were transfected as described above. A 10 μM working solution of media containing either MG132 or epoxomicin was made by adding 1 μL of the respective proteasome inhibitor (10 mM in DMSO) into 999 μL of complete medium. Following removal of TetF, 200 μL of media supplemented with either MG132, epoxomicin, or DMSO was added to each well and the cells were incubated for 4 h. Next, a solution containing 50 μM of sTCO-PEG2-CRBN was made by adding 5 μL of sTCO-PEG2-CRBN (10 mM in DMSO) into 995 μL of complete medium. Following the allotted time for proteasome inhibitor incubation, 50 μL of 50 μM sTCO-PEG2-CRBN was added directly to each well, for a final volume of 250 μL and final concentration of 10 μM of sTCO-PEG2-CRBN. The cells were then incubated overnight at 37° C. with 5% CO2 before lysis and western blot analysis.

## O=C(NCCOCCOCCCCCCCl)OCC1C2CC/C=C/CCC21 (stereo not drawn) [sTCO-CA]
[1]
  extent of bioconjugation: ~ 55%
[2]
  extent of bioconjugation: ~ 90%

## O=C(O)CC1CC2C=CC1C2 (stereo not drawn) [h]
[3]; Aqueous solvent
  Second-order rate constant: 1.9^Ref 9 M^−1s^−1

## C=Cc1ccccc1 [j]
[3]; Mixture (Org water) 50:50
  Second-order rate constant: 0.05 (50:50)^Ref 11 M^−1s^−1

## C=CCSC[C@H](N)C(=O)O [m]
[3]; Mixture (Org water) 50:50
  Second-order rate constant: 0.002 (50:50)^Ref 13 M^−1s^−1

## O=C1CCC(N2C(=O)c3cccc(O)c3C2=O)C(=O)N1 (stereo not drawn) [Thal-OH, thalidomide-OH]
[4]
  effect of thalidomide-OH pretreatment on sTCO-PEG2-CRBN degradation: reduced degradation

## OC1CC/C=C\CCC1 (stereo not drawn) [a]
[3]; Aqueous solvent, ax iso
  Second-order rate constant: 80200 M⁻¹ s⁻¹
[3]; Aqueous solvent, eq iso
  Second-order rate constant: 22600 M⁻¹ s⁻¹
[3]; Mixture (Org water) 90:10
  Second-order rate constant: 2000 (90:10)^Ref 5 M^−1s^−1
[3]; Organic solvent
  Second-order rate constant: 1140^Ref 5 M^−1s^−1

## OCC1O[C@H]2C/C=C\CCC[C@H]2O1 (stereo partly drawn) [c]
[3]; Aqueous solvent, anti iso
  Second-order rate constant: 318000 M⁻¹ s⁻¹
[3]; Aqueous solvent, syn iso
  Second-order rate constant: 366000 M⁻¹ s⁻¹
[3]; Mixture (Org water) 55:45
  Second-order rate constant: 167000 (55:45)^Ref 3 M^−1s^−1

## O=C1C(=Cc2ccccc2)C(NC2CCCCC2)c2ccccc21 (stereo not drawn) [BCI]
[5]
  inhibition of MKP3: known allosteric inhibitor
[6]
  inhibition of DUSP1: inhibits DUSP1

## CC(C)C[C@@H](C=O)NC(=O)[C@H](CC(C)C)NC(=O)[C@H](CC(C)C)NC(=O)OCc1ccccc1 [MG132] (Cbz-Leu-Leu-Leu-aldehyde)
[7]
  effect of proteasome inhibitor pre-treatment on sTCO-PEG2-CRBN induced degradation: reduced

## OCC1[C@@H]2CCC#CCC[C@@H]12 (stereo partly drawn) [d]
[3]; Mixture (Org water) 55:45
  Second-order rate constant: 1245 (55:45)^Ref 6 M^−1s^−1
[3]; Organic solvent
  Second-order rate constant: 45^Ref 4 M^−1s^−1

## OCC1[C@@H]2C/C=C\CCC[C@@H]12 (stereo partly drawn) [b]
[3]; Aqueous solvent
  Second-order rate constant: 3300000^Ref 2 M^−1s^−1
[3]; Organic solvent
  Second-order rate constant: 22000^Ref 3 M^−1s^−1

## CC[C@H](C)[C@H](NC(=O)[C@H]([C@@H](C)CC)N(C)C(C)=O)C(=O)N[C@H](C(=O)N[C@@H](CC(C)C)C(=O)[C@@]1(C)CO1)[C@@H](C)O [epoxomicin]
[7]
  effect of proteasome inhibitor pre-treatment on sTCO-PEG2-CRBN induced degradation: reduced
